From BindingDB's records for doi:10.1021/jm100984y (The University of Queensland, 2010)

Biological target: T1, Proteinase-activated receptor 2 (Homo sapiens, UniProt P55085)
T1 sequence (P55085 whole entry): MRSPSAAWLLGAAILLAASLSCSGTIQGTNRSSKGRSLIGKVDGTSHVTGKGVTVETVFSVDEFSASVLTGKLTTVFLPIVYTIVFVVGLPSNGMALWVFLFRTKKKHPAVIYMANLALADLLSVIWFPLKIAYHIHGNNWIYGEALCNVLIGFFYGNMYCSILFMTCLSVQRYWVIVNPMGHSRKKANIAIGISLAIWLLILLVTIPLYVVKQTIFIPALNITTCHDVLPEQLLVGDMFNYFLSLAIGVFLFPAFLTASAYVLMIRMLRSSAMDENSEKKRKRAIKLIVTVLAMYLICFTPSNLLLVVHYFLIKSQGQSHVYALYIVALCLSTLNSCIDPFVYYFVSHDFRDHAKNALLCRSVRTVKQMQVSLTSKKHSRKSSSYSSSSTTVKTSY
Assay: Agonist activity at PAR2 receptor in human HT-29 cells assessed as induction of intracellular calcium release

CC[C@H](C)[C@H](NC(=O)[C@H](CC1CCCCC1)NC(=O)c1ccno1)C(=O)Nc1ccc(CC(=O)N2CCC(CN)CC2)cc1 [5-Isoxazoyl-Cha-Ile-4-aminophenyl-(4-[aminomethyl]piperidin-1-yl)ethan-2-one]
EC50: 316 nM
